# According to patent US5232846A, “Method for producing a thermostable lipoprotein lipase from streptomyces” (Unitika Ltd., priority 1988, dated 1993):
# Tested on: LPL of the present invention produced by Streptomyces 7825
# Test: Inhibition of the LPL
# Type: biochemical
# Settings: 400 μg/ml protamine sulfate
row,Compound,inhibition of LPL
1,protamine sulfate,about 30%

# Same assay, conditions: 10 mM deoxycholic acid
row,Compound,inhibition of LPL
1,C[C@H](CCC(=O)O)[C@H]1CC[C@H]2[C@@H]3CC[C@@H]4C[C@H](O)CC[C@]4(C)[C@H]3C[C@H](O)[C@]12C [deoxycholic acid],about 40%

# Same assay, conditions: 3M NaCl
row,Compound,inhibition of LPL
1,[Cl-].[Na+] [NaCl],about 40%

# Tested on: LPL of the present invention produced by Streptomyces 7825
# Test: Substrate specificity of the LPL on lipoproteins consisting of various triglycerides
# Type: biochemical
# Settings: relative to olive oil as a standard (100%)
# Experimental: In Table 1, the activity is expressed relative to an olive oil as a standard (100%).
# Titer determination is principally based on the quantitative determination of glycerol formed through the action of LPL on artificial lipoprotein prepared from olive oil as described in Clin. Chim. Acta., Vol. 22, p.
# A mixture of 5 g of olive oil and 5 ml of a 5% (v/v) Triton X-100 solution is subjected to ultrasonication for 10 minutes to prepare a substrate emulsion.
# Seventy microliters of the abovementioned substrate solution, 20 μl of a 0.5M glycine buffer (pH 8.5), 50 μl of 10% (w/v) BSA, and 55 μl of water are mixed in a test tube, and the system is preheated at 37° C. 5 μl of an enzyme solution having an enzyme concentration adjusted to about 10 U/ml, is added to the system. The system is then allowed to react at 37° C. for 10 minutes. After completion of the reaction, the test tube is soaked in boiling water to stop the reaction. After allowing the test tube to cool, 400 μl of isopropanol is added to the reaction system, followed by stirring. The mixture is then centrifuged. 2 ml of isopropanol is then added to 100 μl of the supernatant liquor. The solution is mixed with 1 ml of the above prepared metaperiodic acid solution and 0.5 ml of the above prepared acetylacetone solution to effect a reaction at 50° C. for 30 minutes. The absorbance of the system at 405 nm is measured. A blank estimation (control) is run on a system containing no enzyme solution.
# From the measured values, a calibration curve is prepared using a glycerol solution having a known concentration. Thus the glycerol content of the reaction mixture is determined using the prepared calibration curve.
# The enzyme activity is expressed by taking the amount of the enzyme which forms 1 μmol of glycerol per minute as 1 U.
row,Compound,Relative Activity
1,CCCCCC(=O)OCC(COC(=O)CCCCC)OC(=O)CCCCC [Tricaproin],46%
2,CCCCCCCCCCCCCCCCCC(=O)OCC(COC(=O)CCCCCCCCCCCCCCCCC)OC(=O)CCCCCCCCCCCCCCCCC [Tristearin],29%
3,CCCCCCCCCCCCCCCC(=O)OCC(COC(=O)CCCCCCCCCCCCCCC)OC(=O)CCCCCCCCCCCCCCC [Tripalmitin],99%
4,CCCC(=O)OCC(COC(=O)CCC)OC(=O)CCC [Tributyrin],22%
5,CCCCCCCC/C=C\CCCCCCCC(=O)OCC(COC(=O)CCCCCCC/C=C\CCCCCCCC)OC(=O)CCCCCCC/C=C\CCCCCCCC [Triolein],75%
6,CC(=O)OCC(COC(C)=O)OC(C)=O [Triacetin],28%
7,CCCCCCCC(=O)OCC(COC(=O)CCCCCCC)OC(=O)CCCCCCC [Tricaprylin],148%
8,CCCCCCCCCC(=O)OCC(COC(=O)CCCCCCCCC)OC(=O)CCCCCCCCC [Tricaprin],153%
9,CCCCCCCCCCCC(=O)OCC(COC(=O)CCCCCCCCCCC)OC(=O)CCCCCCCCCCC [Trilaurin],234%
